Values quoted from earlier work as cited in patent US20020028792A1, “Combinations of bisphosphonates, estrogens and estrogenic agents” (American Home Products Corporation, priority 2000, published 2002).

Conditions: Paget's disease of the bone; 30-mg tablets

O=P(O)(O)C(O)(Cc1cccnc1)P(=O)(O)O [Risedronate]
effectiveness in clinical trials: effective
